Measured values reported in patent US20100215618A1, “NOVEL COMPOUNDS - 644” (Arrow Therapeutics Limited, priority 2009, published 2010).
Read-outs that look alike come from different tables or passages of the source.

Experiments:
in vitro = in vitro ADME, Canine; details: dog, MDCK
Procedure: Cells used: MDCK (Madin-Darby Canine Kidney) cells, ATCC collection # CCL-34, are used to model the intestinal barrier. Cell culture conditions: cells were cultured at 37° C. in a 5% CO2 environment and split twice a week on seeding at 4×10^5 cells/flask (75 cm^2) on day 1 and 2×10^5 cells/flask on day 4. The culture medium consisted of MEM+Earle's-L Glutamine (Gibco #21090-022) supplemented with 10% Australian Fetal Calf Serum (Sigma #F6178), 2 mM L-Glutamine (Gibco #25030-024) and 1× Non Essential Amino Acids (Gibco #11140-035)
On day 1, a 24-well plate (Sarstedt, #83.1836.300) was filled with individual 3 lam pore membrane inserts (Millipore, #PITP 012 50). Each plate allows the testing of a cocktail of 3 control compounds and 11 test compounds in duplicate. The wells (outside the inserts) were filled with 500 μl of culture medium.
A flask of cells was trypsinised and a cell count carried out. Cells were diluted to 1.2×10^5 cells/ml (1×10^5 cells/cm^2) and 500 μl dispensed in each insert on the 24-well plate. The plate was incubated at 37° C. in a 5% CO2 environment for 48 hours.
On day 3, the culture medium was removed from the wells, then the inserts and is replaced with fresh culture medium in the wells, then the inserts (500111 per well and insert) The plate was incubated at 37° C. in a 5% CO2 environment for 24 hours.
On day 4, the controls cocktail and test compounds solutions were made up in HBSS buffer (Hank's Balanced Salt Solution, Gibco #14025-050) at 1011M. The final controls and test compounds concentration in the assay was 10 μM, and DMSO concentration maintained at 0.1% (0.3% for the controls cocktail). The controls cocktail was made up of Atenolol (Sigma # A-7655), Dexamethasone (Sigma #D-1756) and Propranolol (Sigma # P-0884).
A 24-well plate was filled with 500 μl of HBSS buffer per well (assay plate) The culture medium was removed from the wells and inserts. The inserts were washed three times with approximately 500 μl of HBSS buffer. The inserts were transferred to the assay plate. Controls cocktail and test compounds solutions were dispensed inside the inserts (500 μl per insert), in duplicates. The assay plate was incubated at 37° C. in a 5% CO2 environment for 2 hours.
After 2 hours, the inserts were removed from the assay plate and transferred into a new 24-well plate (wash plate) The assay plate containing the receiver solutions was left aside for later sampling. To measure the mass balance, 150 μl were sampled from each insert (donor solutions) and dispensed into 150 μl of HPLC-grade Acetonitrile (Fisher Scientific) containing an internal standard and 0.05% formic acid.
The donor solutions were aspirated and discarded from each insert, and the inserts washed once with approximately 500 μl of HBSS buffer. A 24-well plate was filled with 500 μl of HBSS buffer per well (monolayer integrity plate) A Lucifer Yellow (Sigma #L0144) solution was made up at 1001.1M in HBSS buffer. The empty inserts were transferred into the monolayer integrity plate and filled with 500 μl of the Lucifer Yellow solution to determine the cell monolayers integrity and leftover of the solution was kept in a fridge. The plate was incubated at 37° C. in a 5% CO2 environment for 2 hours.
In the meantime, 150 μl were sampled from the assay plate (receiver solutions) and dispensed into 150 μl of HPLC-grade Acetonitrile containing an internal standard and 0.05% formic acid. A calibration curve was made for each mix of compounds (as appropriate depending on compounds molecular weights) A 10 μM mix of compounds in HBSS buffer was diluted 1:1 in HPLC-grade Acetonitrile containing an internal standard and 0.05% formic acid. A 1:1 mix of HBSS buffer and HPLC-grade Acetonitrile containing an internal standard and 0.05% formic acid was made up and used to make up the calibration curve (2 fold dilutions), with concentrations ranging from 10 μM to 0.078 μM. […]

[1] = test system: HCV replicon cells Huh 9B; type: cell-based; details: Huh 9B replicon cells, 72 h, methylene blue, total cell area reduced by 50%
Procedure: HCV replicon cells Huh 9B (ReBlikon), containing the firefly luciferase-ubiquitin-neomycin phosphotransferase fusion protein and EMCV-IRES driven HCV polyprotein with cell culture adaptive mutations.
Replicon cells were trypsinised and counted. Cells were diluted to 100,000 cells/ml and 100 μl used to seed one opaque white 96-well plate (for the replicon assay) and one flat-bottomed clear plate (for the tox assay) for every five compounds to be tested for IC50. Wells G12 and H12 were left empty in the clear plate as the blank. Plates were then incubated at 37° C./5% CO2 for 24 h.
On the following day compound dilutions were prepared in medium at twice their desired final concentration in a clear round bottomed plate. All dilutions have a final DMSO concentration of 1%.
Controls and compounds were transferred from the dilution plates to the assay plates (containing the cells) at 100 μl/well in duplicate wells.
Exception: no compound was added to wells A1 and A2 of either plate and 100 μl of 1% DMSO was added to these instead. Plates were then incubated at 37° C./5% CO2 for 72 h.
The clear plate was stained with 100 μA 0.5% methylene blue in 50% ethanol at room temperature for 1 h, followed by solvation of the absorbed methylene blue in 100 μl per well of 1% lauroylsarcosine. Absorbance of the plate was measured on a microplate spectrophotometer (Molecular Devices) and the absorbance for each concentration of compound expressed as a proportion of the relative DMSO control. The TD50, the is concentration of drug required to reduce the total cell area by 50% relative to the DMSO controls, was calculated by plotting the absorbance at 620 nm after background substraction against drug concentration.

[2] = test system: HCV replicon cells Huh 9B (genotype 1b); test: 1b Replicon Assay (luciferase readout); type: cell-based; details: Hepatitis C virus, Huh 9B replicon cells, 72 h, luciferase activity

For COC(=O)N[C@H](CC(C)C)C(=O)N1CCC[C@H]1c1ncc(-c2ccc(-c3ccc(C(=O)Nc4ccc(CN5CCS(=O)(=O)CC5)cc4)cc3)cc2)[nH]1 [Example 15, Methyl N-[(1R)-1-[(2S)-2-[5-[4-[4-[[4-[(1,1-dioxo-1,4-thiazinan-4-yl)methyl]phenyl]carbamoyl]phenyl]phenyl]-1H-imidazol-2-yl]pyrrolidine-1-carbonyl]-3-methyl-butyl]carbamate], the Papp at 2 h, 10 µM (in vitro) was 0.3 ×10⁻⁶ cm/s, the “HCV TD50 Replicon” value [1] was over 25 µM and the IC50 ([2]; read-out: HCV IC50 1b Replicon) was 3.84 nM. It also gave an IC50 ([2]; read-out: pIC50 1b Replicon (converted)) of 3.8 nM.
